Source: ChEMBL document CHEMBL5727273, “Heteroaryldiazepine derivatives as RSV inhibitors” (2019)

Experiment: RSV assay: Following extensive parameter testing, the final assay is run as follows: HEp-2 cells are seeded into the inner 60 wells of a 96-well plate at 8,000 cells per well in a volume of 50 μL using Growth Media (DMEM without phenol red, 1% L-Glut, 1% Penn/Strep, 1% nonessential amino acids, 10% FBS). 2-fold serial dilutions of control and test compounds are added to the wells in duplicate in a total volume of 25 μL. Viral stock is then added to the wells in a volume of 25 μL, bringing the total volume of each well to 100 μL. Each 96-well plate has a control column of 6 wells with cells and virus but no compound (negative control, max CPE), a column with cells but no compound or virus (positive control, minimum CPE), and a column with no cells or virus or compound (background plate/reagent control). The control wells with cells but no virus are given an additional 25 uL of growth media containing an equal quantity of sucrose as those wells receiving the viral stock in order to keep consistent in media and volume conditions. The outer wells of the plate are filled with 125 μL of growth media to act as a thermal and evaporative moat around the test wells. Following a 4-day incubation period, the plates are read using ATPlite (50 uL added per well), which quantifies the amount of ATP (a measure of cell health) present in each well. Assay plates are read using the Envision luminometer.

Structure (SMILES) | EC50 (HEp-2) | EC50
O=C1Nc2cnccc2C(c2ccccc2)=NC1Nc1nnc(-c2ccc(F)cc2)o1 (centres undefined) | > 800 nM | –
O=C(NC1N=C(c2ccccc2)c2ccsc2NC1=O)OCc1ccccc1 (centres undefined) | 600 nM | –
O=C1Nc2cccnc2C(c2ccccc2)=NC1Nc1nnc(-c2ccccc2)o1 (centres undefined) | > 800 nM | –
Cc1sc2c(c1C)C(c1ccccc1)=NC(Nc1nnc(-c3ncc(C(F)(F)F)cc3N3CCOCC3)o1)C(=O)N2 (centres undefined) | 600 nM | > 800 nM
O=C1Nc2ncccc2C(c2ccccc2)=NC1Nc1nnc(-c2ccc(F)cc2)o1 (centres undefined) | > 800 nM | –
Cc1cc(C(=O)c2ccccc2)c(N)s1 | < 400 nM | > 800 nM
NC1N=C(c2ccccc2)c2sccc2NC1=O (centres undefined) | 600 nM | –
